Source: ChEMBL document CHEMBL1121752, “Cell-specific ligands for selective drug delivery to tissues and organs” (J Med Chem, 1981)

Key:
[1] = Compound was evaluated for the inhibition of [125I]-labeled D-mannose-bovine serum albumin binding to alveolar macrophages; design: species or system Rattus norvegicus
Rattus norvegicus [2] = organism: Rattus norvegicus; experiment: Compound was evaluated for the inhibition of [125I]-labeled D-mannose-bovine serum albumin binding to alveolar macrophages at 100 uM
Rattus norvegicus [3] = organism: Rattus norvegicus; experiment: Compound was evaluated for the inhibition of [125I]-labeled D-mannose-bovine serum albumin binding to alveolar macrophages at 50 uM
Rattus norvegicus [4] = organism: Rattus norvegicus; experiment: Compound was evaluated for the inhibition of [125I]-labeled D-mannose-bovine serum albumin binding to alveolar macrophages at 10 uM

SMILES | Ki [1] [µM] | inhibition (Rattus norvegicus [2]) [%] | inhibition (Rattus norvegicus [3]) [%] | inhibition (Rattus norvegicus [4]) [%]
CC(C)CCCC(C)C1CCC2C3CC=C4CC(OCCCCCCNC(=O)C(CCCCNC(=O)CCSC5OC(CO)C(O)C(O)C5O)NC(=O)[C@@H](CCCCNC(=O)CCSC5OC(CO)C(O)C(O)C5O)NC(=O)CCSC5OC(CO)C(O)C(O)C5O)CCC4(C)C3CCC12C (stereo partly specified) | 4 | – | – | –
CC(=O)C(CCCC/N=C(/N)CSC1OC(CO)C(O)C(O)C1O)NC(=O)[C@@H](CCCC/N=C(\N)CSC1OC(CO)C(O)C(O)C1O)/N=C(\N)CSC1OC(CO)C(O)C(O)C1O (stereo partly specified) | 6 | – | – | –
O=C(CCSC1OC(CO)C(O)C(O)C1O)NCCCC[C@@H](NC(=O)CCSC1OC(CO)C(O)C(O)C1O)C(=O)O (stereo partly specified) | 6.2 | – | – | –
O=C(CCSC1OC(CO)C(O)C(O)C1O)NCCCCC(NC(=O)C(CCCCNC(=O)CCSC1OC(CO)C(O)C(O)C1O)NC(=O)[C@@H](CCCCNC(=O)CCSC1OC(CO)C(O)C(O)C1O)NC(=O)CCSC1OC(CO)C(O)C(O)C1O)C(=O)O (stereo partly specified) | 3.6 | – | – | –
O=C(CCSC1OC(CO)C(O)C(O)C1O)NCCCC[C@H](NC(=O)CCSC1OC(CO)C(O)C(O)C1O)C(=O)O (stereo partly specified) | 7.7 | – | – | –
N/C(CSC1OC(CO)C(O)C(O)C1O)=N\CCCC[C@@H](/N=C(\N)CSC1OC(CO)C(O)C(O)C1O)C(=O)O (stereo partly specified) | 100 | – | – | –
O=C(CCSC1OC(CO)C(O)C(O)C1O)NCCCCC(NC(=O)[C@@H](CCCCNC(=O)CCSC1OC(CO)C(O)C(O)C1O)NC(=O)CCSC1OC(CO)C(O)C(O)C1O)C(=O)NCCCCCCNC(=O)CCc1ccc(O)cc1 (stereo partly specified) | 9.3 | – | – | –
CC1OC(SCCC(=O)NCCCCC(NC(=O)[C@@H](CCCCNC(=O)CCSC2OC(C)C(O)C(O)C2O)NC(=O)CCSC2OC(C)C(O)C(O)C2O)C(=O)O)C(O)C(O)C1O (stereo partly specified) | – | 45 | – | 9

The next lines start with the values.

Ki [1] [µM] | inhibition (Rattus norvegicus [2]) [%] | inhibition (Rattus norvegicus [3]) [%] | inhibition (Rattus norvegicus [4]) [%] | SMILES
8 | 5 | – | – | NCCCCCCNC(=O)C(CCCCNC(=O)CCSC1OC(CO)C(O)C(O)C1O)NC(=O)[C@@H](CCCCNC(=O)CCSC1OC(CO)C(O)C(O)C1O)NC(=O)CCSC1OC(CO)C(O)C(O)C1O (stereo partly specified)
– | 89 | 81 | 43 | O=C(CCSC1OC(CO)C(O)C(O)C1O)NCCCCC(NC(=O)[C@@H](CCCCNC(=O)CCSC1OC(CO)C(O)C(O)C1O)NC(=O)CCSC1OC(CO)C(O)C(O)C1O)C(=O)O (stereo in doubt; 14) [listing 1 of 2 here]
– | 81 | 68 | 27 | O=C(CSC1OC(CO)C(O)C(O)C1O)NCCCCC(NC(=O)[C@@H](CCCCNC(=O)CSC1OC(CO)C(O)C(O)C1O)NC(=O)CSC1OC(CO)C(O)C(O)C1O)C(=O)O (stereo partly specified)
3.9 | – | – | – | O=C(CCSC1OC(CO)C(O)C(O)C1O)NCCCCC(NC(=O)[C@@H](CCCCNC(=O)CCSC1OC(CO)C(O)C(O)C1O)NC(=O)CCSC1OC(CO)C(O)C(O)C1O)C(=O)O (stereo in doubt; 14) [listing 2 of 2 here]
– | 2 | 0 | 0 | O=C(CCSC1OC(CO)C(O)C(O)C1O)NCCCCC(NC(=O)[C@@H](CCCCNC(=O)CCSC1OC(CO)C(O)C(O)C1O)NC(=O)CCSC1OC(CO)C(O)C(O)C1O)C(=O)O (stereo in doubt; 31)
